According to patent publication US20150237857A1, “ANTIBACTERIAL INHIBITORS” (MCMASTER UNIVERSITY, priority 2012, published 2015):
≈ marks a conversion by molar mass, not a printed value. Where two headings read alike, the source gives them in different places.

Columns and labels:
[1] = biological target: recombinant E. coli BioA (Escherichia coli, UniProt P12995); test: BioA inhibition through a feeding assay of a bioA auxotroph; assay type: biochemical; conditions: relative to DMSO control
Method: To determine if the step catalyzed by BioA was the target of this inhibitor, the inhibitory activity of MAC-0013772 against recombinant E. coli BioA was assayed through a feeding assay of a bioA auxotroph.

[2] = system: Mycobacteria smegmatis; test: MIC against Mycobacteria smegmatis in absence and presence of biotin; assay type: cell-based
[3] = system: E. coli MG1655; test: Minimum inhibitory concentration (MIC) determination; conditions: for MIC: Escherichia coli
Method: The MIC values were determined in liquid minimal media and minimal media supplemented with amino acids, vitamins and nucleobases.
A single colony of E. coli MG1655 was grown overnight in 5 ml of M9 minimal media. The saturated culture was diluted 1/50 in fresh minimal media and allowed to grow until the OD600 reached ˜0.4. […] After mixing of the bacterial culture with the compounds, the OD600 of the plates was read using Envision to account for background absorbance. The plates were then incubated in a 37° C. stationary incubator for 16 hours before measuring their OD600. After subtracting any background absorbance contributed by colored or precipitated compounds, the MIC was defined as the lowest concentration of antibiotic that inhibits visible growth.

[4] = system: E. coli MG1655; test: Metabolic suppression profiling (ChemArray); assay type: cell-based; conditions: for metabolic suppression profile: metabolites that suppress growth inhibitory activity: ChemArray
[5] = absence of biotin, read-out: MIC −bio
[6] = presence of 2 nM of biotin, read-out: MIC +bio
[7] = MG1655, 16 h, read-out: MIC +bio, presence of 2 nM of biotin
[8] = MG1655, read-out: MIC −bio, absence of biotin

Sequence of recombinant E. coli BioA (P12995 whole entry): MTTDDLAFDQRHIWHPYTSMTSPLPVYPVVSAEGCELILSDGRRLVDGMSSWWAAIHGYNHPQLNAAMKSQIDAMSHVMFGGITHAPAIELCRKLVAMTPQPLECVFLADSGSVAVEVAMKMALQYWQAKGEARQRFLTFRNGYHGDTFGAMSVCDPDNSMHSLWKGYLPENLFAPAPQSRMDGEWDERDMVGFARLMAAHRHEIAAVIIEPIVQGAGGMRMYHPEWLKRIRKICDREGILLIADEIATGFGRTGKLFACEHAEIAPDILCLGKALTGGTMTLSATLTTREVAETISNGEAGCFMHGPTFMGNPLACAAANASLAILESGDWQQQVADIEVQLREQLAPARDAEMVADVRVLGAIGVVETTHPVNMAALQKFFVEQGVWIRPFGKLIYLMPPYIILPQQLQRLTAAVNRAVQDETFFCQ

| SMILES | inhibition at 1 µM [1] [%] | inhibition at 10 µM [1] [%] | MIC [2, 5] [mg/L] | MIC [2, 6] [mg/L] | MIC [3, 7] [mg/L] | MIC [3, 8] [mg/L] | also measured |
| --- | --- | --- | --- | --- | --- | --- | --- |
| NNC(=O)CSc1cccc([N+](=O)[O-])c1 [Compound 1a, 2-(3-nitrophenylthio)acetohydrazide] | 42 | 84 | 16 | > 256 | > 256 | 256 (≈ 1130 µM) |  |
| NNC(=O)CSc1ccc([N+](=O)[O-])cc1 [Compound 1b, 2-(4-nitrophenylthio)acetohydrazide] | 66 | 100 | 4 | > 256 |  |  | antibacterial potency against M. smegmatis compared with MAC-0013772 (in words) [2]: potencies similar to that of MAC-0013772 |
| CN(C)CCC(=O)c1ccc2c(c1)OCCO2 [MAC-0161738, 1-(2,3-dihydrobenzo[b][1,4]dioxin-6-yl)-3-(dimethylamino)propan-1-one] |  |  |  |  |  |  | suppression of growth inhibitory activity by glycine ([4]; 4× MIC in M9 minimal media): strongly suppressed |
| CCC(=O)NN [Compound 2d] | 0 | 8 | 64 | 64 | > 256 | > 256 |  |
| CCn1cc(C(=O)O)c(=O)c2cc(F)c(N3CCNCC3)cc21 [norfloxacin, reference compound] |  |  |  |  |  |  | metabolic suppression profile: metabolites that suppress growth inhibitory activity ([4]; 4× MIC in M9 minimal media): not altered in the presence of supplements |
| NNC(=O)CS [Compound 2b] | 20 | 34 | 32 | 32 | 256 | 256 (≈ 2410 µM) |  |
| N[C@@H]1CONC1=O [D-cycloserine, reference compound] |  |  |  |  |  |  | metabolic suppression profile: metabolites that suppress growth inhibitory activity ([4]; 4× MIC in M9 minimal media): suppressed by the addition of either D/L-alanine or glycine; suppression of growth inhibitory activity by glycine ([4]; 4× MIC in M9 minimal media): strongly suppressed |
| COc1cc(Cc2cnc(N)nc2N)cc(OC)c1OC [Trimethoprim, reference compound] |  |  |  |  |  |  | metabolic suppression profile: metabolites that suppress growth inhibitory activity ([4]; 4× MIC in M9 minimal media): only be suppressed by providing a mixture of all supplements or at least a mixture of amino acids and nucleobases |
| NNC(=O)CSc1ccccc1N [Compound 1g, 2-(2-aminophenylthio)acetohydrazide] | 58 | 100 | 32 | 256 | > 256 | 256 (≈ 1300 µM) |  |
| O=C(O)CSc1ccccc1[N+](=O)[O-] [Compound 1n] | 0 | 0 | > 256 | > 256 | > 256 | > 256 |  |
| NNC(=O)CSc1ccncc1 [Compound 2i, 2-(pyridin-4-ylthio)acetohydrazide] | 32 | 77 | 8 | 128 | > 256 | 64 (≈ 349 µM) | antibacterial potency against M. smegmatis compared with MAC-0013772 (in words) [2]: potencies similar to that of MAC-0013772 |
| Cc1ccccc1SCC(=O)NN [Compound 1h, 2-(o-tolylthio)acetohydrazide] | 81 | 100 | 4 | > 256 | > 256 | 16 (≈ 81.5 µM) | antibacterial potency against M. smegmatis compared with MAC-0013772 (in words) [2]: potencies similar to that of MAC-0013772; antibacterial activity against E. coli (in words) [3]: does not gravely alter antibacterial activity |
| NNC(=O)CSc1ccc2ccccc2c1 [Compound 2h, 2-(naphthalen-2-ylthio)acetohydrazide] | 71 | 100 | 32 | > 256 | > 256 | > 256 |  |
| NNC(=O)CSCc1ccccc1 [Compound 2g, 2-(benzylthio)acetohydrazide] | 60 | 100 | 8 | > 256 | > 256 | 64 (≈ 326 µM) | antibacterial potency against M. smegmatis compared with MAC-0013772 (in words) [2]: potencies similar to that of MAC-0013772 |
| COc1ccccc1SCC(=O)NN [Compound 1i, 2-(2-methoxyphenylthio)acetohydrazide] | 65 | 100 | 16 | > 256 | > 256 | 128 (≈ 603 µM) |  |
| NNC(=O)CSc1ccccc1Cl [Compound 1e, 2-(2-chlorophenylthio) acetohydrazide] | 63 | 100 | 4 | > 256 | > 256 | 16 (≈ 73.8 µM) | antibacterial potency against M. smegmatis compared with MAC-0013772 (in words) [2]: potencies similar to that of MAC-0013772; antibacterial activity against E. coli (in words) [3]: does not gravely alter antibacterial activity |
| NNC(=O)C1Cc2ccccc2S1 (centres unmarked) [Compound 2f, 2,3-dihydrobenzo[b]thiophene-2-carbohydrazide] | 15 | 69 | 64 | > 256 | > 256 | > 256 |  |
| CSCC(=O)NN [Compound 2a] | 50 | 64 | 32 | 32 | 64 | 64 (≈ 533 µM) | suppression of growth inhibition in the presence of biotin (in words) ([3]; presence of biotin): not suppressed |
| CCCC(=O)NN [Compound 2c] | 1 | 40 |  |  |  |  | MIC ([2]; read-out: MIC +bio): 64 mg/L; MIC ([2]; read-out: MIC −bio): 64 mg/L; MIC ([3]; MG1655, read-out: MIC −bio): > 256 mg/L |
| CCC(=O)CSc1ccccc1[N+](=O)[O-] [Compound 1k] | 0 | 0 | > 256 | > 256 | > 256 | > 256 |  |
| NNC(=O)Cc1ccccc1[N+](=O)[O-] [Compound 2j] | 0 | 29 | 256 | > 256 | > 256 | > 256 |  |
| NNC(=O)CSc1ccccc1O [Compound 1f, 2-(2-hydroxyphenylthio)acetohydrazide] | 32 | 70 | 32 | 256 | 256 | 256 (≈ 1290 µM) |  |
| NNC(=O)CSc1ccccc1 [Compound 1c, 2-(phenylthio)acetohydrazide] | 49 | 100 | 4 | > 256 | > 256 | 64 (≈ 351 µM) | antibacterial potency against M. smegmatis compared with MAC-0013772 (in words) [2]: potencies similar to that of MAC-0013772 |
| CC(=O)NNC(=O)CSc1ccc([N+](=O)[O-])cc1 [Compound 1j] | 0 | 0 | > 256 | > 256 | > 256 | > 256 |  |
| NNC(=O)CSc1ccccc1F [Compound 1d, 2-(2-fluorophenylthio)acetohydrazide] | 36 | 100 | 4 | > 256 | > 256 | 32 (≈ 160 µM) | antibacterial potency against M. smegmatis compared with MAC-0013772 (in words) [2]: potencies similar to that of MAC-0013772 |
| CC(=O)CSc1ccccc1[N+](=O)[O-] [Compound 1m] | 0 | 0 | 256 | 256 | > 256 | > 256 |  |
| O=C(CCN1CCCCC1)c1ccc2c(c1)OCCCO2 [MAC-0162065, 1-(3,4-dihydro-2H-benzo[b][1,4]dioxepin-7-yl)-3-(piperidin-1-yl)propan-1-one] |  |  |  |  |  |  | suppression of growth inhibitory activity by glycine ([4]; 4× MIC in M9 minimal media): strongly suppressed |
| Cc1cc(NS(=O)(=O)c2ccc(N)cc2)no1 [sulfamethoxazole, reference compound] |  |  |  |  |  |  | suppression of growth inhibitory activity by p-aminobenzoic acid (PABA) ([4]; 4× MIC in M9 minimal media, PABA in growth media): fully reversed; suppression of growth inhibitory activity by methionine ([4]; 4× MIC in M9 minimal media, methionine in growth media): to a certain extent |
| NC(=O)CSc1ccccc1[N+](=O)[O-] [Compound 1l] | 0 | 0 | 128 | > 256 | > 256 | > 256 |  |
| O=C(O)CNCP(=O)(O)O [glyphosate, reference compound] |  |  |  |  |  |  | metabolic suppression profile: metabolites that suppress growth inhibitory activity ([4]; 4× MIC in M9 minimal media): could only be achieved by providing a mixture of amino acids; suppression of growth inhibitory activity by pools containing the aromatic amino acids ([4]; expanded ChemArray): fully reversed |
